# Assay results from publication PMC12632398 (bioRxiv, 2025).
# Non-standard residues stand in square brackets, D forms with d. No end group written: not given here. Dap = NC[C@H](N)C(=O)O
# Tests used:
# [1] = tested on: MCF-7 breast cancer cells; assay: Cell viability assay for MCF-7, CellTiter Glo 2.0; assay type: cell-based; conditions: MCF-7 cells, 48 h; positive control compared with MP23
# [2] = tested on: Cells that express the HaloTag protein; conditions: CAPA; ratio of CP50 to that of JQ-1-Ct
# [3] = tested on: HaloTag protein in cells; assay: Time-resolved CAPA; assay type: cell-based; conditions: 5μM MP1 and 1.62μM JQ1; reproduced in two independent experiments
# [4] = tested on: HEK293 cells; assay: Cell viability, CellTiter Glo 2.0, HEK293; assay type: cell-based; conditions: 100 μM, 12 hours, CellTiter Glo 2.0, three independent experiments
compound,measurement,setting,value
CC(C)[C@@H](CS(=O)(=O)C(C)C)N1C(=O)[C@@](C)(CC(=O)O)C[C@H](c2cccc(Cl)c2)[C@H]1c1ccc(Cl)cc1 [Navtemadlin],"potency relative to MP23, MCF-7 viability",[1],about ten-fold more potent
[Dap]AWFK-NH2 (also: sidechain bridge or staple (positions not given here)) [MP1-Ct],fold higher (poorer) CP50 than JQ-1-Ct,[2],3.4 fold
same,"kinetics of HaloTag protein alkylation, time-resolved CAPA",[3],relatively rapid
same,effect on the viability of HEK293 cells,[4],no effect
